Source: US8785147B2, “L-threonine analysis method and L-threonine dehydrogenase” (Toyama Prefecture, priority 2010, dated 2014)
Read-outs that look alike come from different tables or passages of the source.

Legend:
[1] = system: CsTDH: TDH from Clostridium sticklandii; conditions: substrate specificity; L-threonine = 100; cited from earlier work
[2] = system: TDH derived from Cupriavidus necator NBRC 102504 (SEQ ID NO: 1) (CnTDH); assay: Substrate specificity of TDH, standard assay; format: biochemical; conditions: for Activity of the present enzyme on the substrate (in words): substrate 10 mM
Procedure: L-threonine oxidation activity was determined by measuring coenzyme NAD^+ reduction at 30° C. and 340 nm. The reaction composition consisted of a total volume of 1 mL and contained L-threonine (final concentration 10 mM), NAD^+ (final concentration 2.5 mM), and glycine-KCl—KOH buffer (100 mM, pH 10.0). The measurement of activity began with the addition of the enzyme. One unit (U) of enzymatic activity was defined as the amount of enzyme producing 1 μmol of NADH per minute under standard conditions.
TDH was examined using substrates in the form of various L-amino acids, amino alcohols, and alcohols. […]

[3] = biological target: EcTDH: TDH from Escherichia coli K-12 (Escherichia coli, UniProt P07913); conditions: cited from earlier work
[4] = system: GdTDH: TDH from chicken liver (Gallus domesticus); conditions: substrate specificity; L-threonine = 100; cited from earlier work
[5] = system: StTDH: TDH from Streptomyces sp. 139; conditions: substrate specificity; L-threonine = 100; cited from earlier work
[6] = system: AgTDH: TDH from Arthrobacter globiformis; conditions: substrate specificity; L-threonine = 100; cited from earlier work
[7] = biological target: PfTDH: TDH from Pyrococcus furiosus (Pyrococcus furiosus, UniProt Q8U259); conditions: cited from earlier work
[8] = system: CyTDH: TDH from Cytophaga sp. KUC-1; conditions: substrate specificity; L-threonine = 100; cited from earlier work
TkTDH = TkTDH (Thermococcus kodakarensis, UniProt Q5JI69); conditions: substrate specificity; L-threonine = 100; cited from earlier work
[9] = substrate concentration 10 mM, standard assay conditions, L-threonine = 100
[10] = substrate specificity, L-threonine = 100

PfTDH: TDH from Pyrococcus furiosus, sequence (Q8U259 whole entry): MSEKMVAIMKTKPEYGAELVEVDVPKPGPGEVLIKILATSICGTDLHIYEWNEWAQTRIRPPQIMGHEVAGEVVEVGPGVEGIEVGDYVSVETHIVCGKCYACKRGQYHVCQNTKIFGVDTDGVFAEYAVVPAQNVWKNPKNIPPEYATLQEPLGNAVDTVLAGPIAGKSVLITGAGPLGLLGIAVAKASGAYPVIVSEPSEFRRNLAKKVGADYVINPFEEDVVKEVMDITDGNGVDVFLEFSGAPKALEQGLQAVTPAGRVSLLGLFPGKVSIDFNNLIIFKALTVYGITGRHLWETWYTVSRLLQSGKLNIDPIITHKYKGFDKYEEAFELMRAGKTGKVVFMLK
EcTDH: TDH from Escherichia coli K-12, sequence (P07913 whole entry): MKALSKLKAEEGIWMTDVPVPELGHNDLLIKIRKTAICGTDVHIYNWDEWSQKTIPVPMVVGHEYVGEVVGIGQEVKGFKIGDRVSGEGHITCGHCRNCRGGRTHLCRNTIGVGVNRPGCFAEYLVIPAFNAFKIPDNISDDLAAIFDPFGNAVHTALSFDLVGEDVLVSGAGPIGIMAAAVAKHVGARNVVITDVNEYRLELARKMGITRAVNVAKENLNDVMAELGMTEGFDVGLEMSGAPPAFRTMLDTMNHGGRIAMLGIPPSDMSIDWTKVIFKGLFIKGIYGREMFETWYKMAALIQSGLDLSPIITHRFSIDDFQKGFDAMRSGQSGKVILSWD
TkTDH, sequence (Q5JI69 whole entry): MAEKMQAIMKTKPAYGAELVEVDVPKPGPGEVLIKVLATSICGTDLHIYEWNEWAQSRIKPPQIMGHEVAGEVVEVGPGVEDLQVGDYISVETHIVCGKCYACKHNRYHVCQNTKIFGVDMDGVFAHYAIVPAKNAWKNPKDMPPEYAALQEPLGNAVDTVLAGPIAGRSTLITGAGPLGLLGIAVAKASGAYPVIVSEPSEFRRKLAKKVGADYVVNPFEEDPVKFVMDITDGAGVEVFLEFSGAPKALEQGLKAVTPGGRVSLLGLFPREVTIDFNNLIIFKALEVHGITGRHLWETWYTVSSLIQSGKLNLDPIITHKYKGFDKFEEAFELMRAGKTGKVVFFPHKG

| Compound | Relative activity (%) CsTDH [1] | Relative activity (%) CnTDH [2, 9] | Relative activity (%) EcTDH [3] | Relative activity (%) EcTDH [3, 10] | Relative activity (%) GdTDH [4] | Relative activity (%) StTDH [5] | Activity of the present enzyme on the substrate (in words) ([2]; standard assay conditions) | Relative activity (%) AgTDH [6] | Relative activity (%) PfTDH [7, 10] | Relative activity (%) CyTDH [8] | Relative activity (%) TkTDH (TkTDH) | Relative activity (%) PfTDH [7] | Relative activity (%) CnTDH ([2]; substrate 100 mM) |
| --- | --- | --- | --- | --- | --- | --- | --- | --- | --- | --- | --- | --- | --- |
| C[C@@H](O)[C@H](N)C(N)=O [L-threonine amide] | 0% | 0% | 98% |  |  |  |  |  |  |  |  |  |  |
| COC(=O)[C@@H](N)[C@@H](C)O [L-threonine methyl ester] | 0% | 0% |  | 27% |  |  |  |  |  |  |  |  |  |
| C[C@H](O)[C@H](N)C(=O)O (racemic) [DL-allothreonine] | 0% | 0% |  | 95.0% | 0% |  |  |  |  |  |  |  |  |
| C[C@@H](O)[C@H](N)C(=O)O [L-threonine hydroxide] | 0% | 0% |  | 25% |  |  |  |  |  |  |  |  |  |
| C[C@@H](O)[C@H](N)C(=O)O [L-threonine] | 100% | 100% |  | 100.0% | 100% | 100% | exhibited the activity for only L-threonine | 100% | 100% | 100% | 100% |  |  |
| NC(=O)C[C@H](N)C(=O)O [L-asparagine] | 0% | 0% |  |  |  |  |  |  | 0% | 0% |  |  |  |
| C[C@H](O)[C@@H](N)C(=O)O [D-threonine] | 0% | 0% |  | 63.7% | 0% |  | no activity was observed |  | 5% | 0% |  |  |  |
| CC[C@H](C)[C@H](N)C(=O)O [L-isoleucine] | 0% | 0% |  |  |  |  |  |  | 0% | 0% |  |  |  |
| NCC(=O)O [Glycine] | 0% | 0% |  |  |  |  |  |  |  | 0% |  | 0% |  |
| C[C@H](N)C(=O)O [L-alanine] | 0% | 0% |  |  |  |  |  |  | 0% | 0% |  |  |  |
| CCC(O)C(N)C(=O)O (racemic) [DL-α-amino-β-hydroxyvaleric acid] | 20% |  |  | 71% | 0% |  |  |  |  | 31% |  |  |  |
| N[C@@H](Cc1c[nH]c2ccccc12)C(=O)O [L-tryptophan] | 0% | 0% |  |  |  |  |  |  | 0% | 0% |  |  |  |
| N[C@@H](Cc1ccc(O)cc1)C(=O)O [L-tyrosine] | 0% | 0% |  |  |  |  |  |  | 0% | 0% |  |  |  |
| N[C@@H](CO)C(=O)O [L-serine] | 0% | 0% |  | 4.0% | 0% |  |  |  | 15% | 0% | 13% |  | 0% |
| NC(C(=O)O)C(O)c1ccccc1 (racemic) [DL-threo-3-phenylserine] | 0% | 0% |  | 3% |  |  |  |  |  | 0% |  |  |  |
| N[C@@H](CCC(=O)O)C(=O)O [L-glutamic acid] | 0% | 0% |  |  |  |  |  |  | 0% | 0% |  |  |  |
